According to PubChem BioAssay AID1963959 (Molecular Pharmacology Branch, DTP, NCI, 2024):

Test system: T-47D spheroids with HUVEC/MSC, viability
Assay: Anticancer human tumor T-47D cell line growth inhibition [PI3K];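 also: spheroids exposed to agents for seven days before reading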;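 as to viability, T/C: percent of DMSO vehicle control luminescence so 100% = untreated growth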
Details: for viability, T/C: stronger effect = lower value
How it was run: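 Combination activity was assessed by viability in multicellular tumor spheroids carrying HUVEC and MSC components. Agents were tested with PI3K inhibitors from a Cmax-based top dose (or 10 microM) downward in half-log increments.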

[1] = curve of first compound, second compound 0.0316 µM
[2] = curve of first compound, second compound 0.1 µM
[3] = curve of first compound, second compound 0.316 µM
[4] = curve of first compound, second compound 1 µM
[5] = curve of first compound, second compound 3.16 µM
[6] = curve of first compound, second compound 10 µM
[7] = second compound 0.0316 µM, first compound 0.0316 µM
[8] = second compound 0.0316 µM, first compound 0.1 µM
[9] = second compound 0.0316 µM, first compound 0.316 µM
[10] = second compound 0.0316 µM, first compound 1 µM
[11] = second compound 0.0316 µM, first compound 3.16 µM
[12] = second compound 0.0316 µM, first compound 10 µM
[13] = second compound 0.1 µM, first compound 0.0316 µM
[14] = second compound 0.1 µM, first compound 0.1 µM
[15] = second compound 0.1 µM, first compound 0.316 µM
[16] = second compound 0.1 µM, first compound 1 µM
[17] = second compound 0.1 µM, first compound 3.16 µM
[18] = second compound 0.1 µM, first compound 10 µM
[19] = second compound 0.316 µM, first compound 0.0316 µM
[20] = second compound 0.316 µM, first compound 0.1 µM
[21] = second compound 0.316 µM, first compound 0.316 µM
[22] = second compound 0.316 µM, first compound 1 µM
[23] = second compound 0.316 µM, first compound 3.16 µM
[24] = second compound 0.316 µM, first compound 10 µM
[25] = second compound 1 µM, first compound 0.0316 µM
[26] = second compound 1 µM, first compound 0.1 µM
[27] = second compound 1 µM, first compound 0.316 µM
[28] = second compound 1 µM, first compound 1 µM
[29] = second compound 1 µM, first compound 3.16 µM
[30] = second compound 1 µM, first compound 10 µM
[31] = second compound 3.16 µM, first compound 0.0316 µM
[32] = second compound 3.16 µM, first compound 0.1 µM
[33] = second compound 3.16 µM, first compound 0.316 µM
[34] = second compound 3.16 µM, first compound 1 µM
[35] = second compound 3.16 µM, first compound 3.16 µM
[36] = second compound 3.16 µM, first compound 10 µM
[37] = second compound 10 µM, first compound 0.0316 µM
[38] = second compound 10 µM, first compound 0.1 µM
[39] = second compound 10 µM, first compound 0.316 µM
[40] = second compound 10 µM, first compound 1 µM
[41] = second compound 10 µM, first compound 3.16 µM
[42] = second compound 10 µM, first compound 10 µM

## CC(C)NCC(C(=O)N1CCN(c2ncnc3c2C(C)CC3O)CC1)c1ccc(Cl)cc1 (centres undefined) + CC(Nc1ncnc2nc[nH]c12)c1cc2cccc(Cl)c2c(=O)n1-c1ccccc1
[1]
  IC50: > 10 µM
[2]
  IC50: > 10 µM
[3]
  IC50: > 10 µM
[4]
  IC50: > 10 µM
[5]
  IC50: > 10 µM
[6]
  IC50: > 10 µM
[7]
  viability, T/C: 107%
[8]
  viability, T/C: 73.4%
[9]
  viability, T/C: 91.6%
[10]
  viability, T/C: 81.4%
[11]
  viability, T/C: 59.9%
[12]
  viability, T/C: 57.2%
[13]
  viability, T/C: 111%
[14]
  viability, T/C: 75.5%
[15]
  viability, T/C: 88.5%
[16]
  viability, T/C: 66.2%
[17]
  viability, T/C: 60.2%
[18]
  viability, T/C: 63.6%
[19]
  viability, T/C: 98.3%
[20]
  viability, T/C: 78.6%
[21]
  viability, T/C: 77.4%
[22]
  viability, T/C: 65.9%
[23]
  viability, T/C: 65.2%
[24]
  viability, T/C: 62.2%
[25]
  viability, T/C: 79.8%
[26]
  viability, T/C: 104%
[27]
  viability, T/C: 90.1%
[28]
  viability, T/C: 63.4%
[29]
  viability, T/C: 61.9%
[30]
  viability, T/C: 60.4%
[31]
  viability, T/C: 98.7%
[32]
  viability, T/C: 84.4%
[33]
  viability, T/C: 81.7%
[34]
  viability, T/C: 87.5%
[35]
  viability, T/C: 55.3%
[36]
  viability, T/C: 62.9%
[37]
  viability, T/C: 93.5%
[38]
  viability, T/C: 93.1%
[39]
  viability, T/C: 87.3%
[40]
  viability, T/C: 74%
[41]
  viability, T/C: 67.3%
[42]
  viability, T/C: 57.9%

## CC(=O)c1c(C)c2cnc(Nc3ccc(N4CCNCC4)cn3)nc2n(C2CCCC2)c1=O + CC(Nc1ccc2c(c1)OCCn1cc(N3C(=O)OCC3C(F)F)nc1-2)C(N)=O
Curve of first compound, second compound 0.00316 µM
  IC50: > 0.1 µM
Curve of first compound, second compound 0.01 µM
  IC50: > 0.1 µM
[1]
  IC50: > 0.1 µM
[2]
  IC50: > 0.1 µM
[3]
  IC50: > 0.1 µM
[4]
  IC50: < 0.000316 µM
Second compound 0.00316 µM, first compound 0.000316 µM
  viability, T/C: 92.1%
Second compound 0.00316 µM, first compound 0.001 µM
  viability, T/C: 90.5%
Second compound 0.00316 µM, first compound 0.00316 µM
  viability, T/C: 82.9%
Second compound 0.00316 µM, first compound 0.01 µM
  viability, T/C: 95.3%
Second compound 0.00316 µM, first compound 0.0316 µM
  viability, T/C: 64.4%
Second compound 0.00316 µM, first compound 0.1 µM
  viability, T/C: 86%
Second compound 0.01 µM, first compound 0.000316 µM
  viability, T/C: 83.8%
Second compound 0.01 µM, first compound 0.001 µM
  viability, T/C: 121%
Second compound 0.01 µM, first compound 0.00316 µM
  viability, T/C: 71.9%
Second compound 0.01 µM, first compound 0.01 µM
  viability, T/C: 75.3%
Second compound 0.01 µM, first compound 0.0316 µM
  viability, T/C: 78.6%
Second compound 0.01 µM, first compound 0.1 µM
  viability, T/C: 69.8%
Second compound 0.0316 µM, first compound 0.000316 µM
  viability, T/C: 70.1%
Second compound 0.0316 µM, first compound 0.001 µM
  viability, T/C: 85.8%
Second compound 0.0316 µM, first compound 0.00316 µM
  viability, T/C: 76.1%
Second compound 0.0316 µM, first compound 0.01 µM
  viability, T/C: 83.6%
[7]
  viability, T/C: 69.8%
[8]
  viability, T/C: 67.1%
Second compound 0.1 µM, first compound 0.000316 µM
  viability, T/C: 84.7%
Second compound 0.1 µM, first compound 0.001 µM
  viability, T/C: 89.8%
Second compound 0.1 µM, first compound 0.00316 µM
  viability, T/C: 76%
Second compound 0.1 µM, first compound 0.01 µM
  viability, T/C: 65.7%
[13]
  viability, T/C: 77%
[14]
  viability, T/C: 54.5%
Second compound 0.316 µM, first compound 0.000316 µM
  viability, T/C: 59.4%
Second compound 0.316 µM, first compound 0.001 µM
  viability, T/C: 65.9%
Second compound 0.316 µM, first compound 0.00316 µM
  viability, T/C: 48.9%
Second compound 0.316 µM, first compound 0.01 µM
  viability, T/C: 56.7%
[19]
  viability, T/C: 43.4%
[20]
  viability, T/C: 60.1%
Second compound 1 µM, first compound 0.000316 µM
  viability, T/C: 39.9%
Second compound 1 µM, first compound 0.001 µM
  viability, T/C: 55.6%
Second compound 1 µM, first compound 0.00316 µM
  viability, T/C: 49.5%
Second compound 1 µM, first compound 0.01 µM
  viability, T/C: 41%
[25]
  viability, T/C: 38.9%
[26]
  viability, T/C: 32.6%

## C[C@@H](NC(=O)c1ncnc(N)c1Cl)c1ncc(C(=O)Nc2cc(C(F)(F)F)c(Cl)cn2)s1 + CC(Nc1ncnc2nc[nH]c12)c1cc2cccc(Cl)c2c(=O)n1-c1ccccc1
[1]
  IC50: > 10 µM
[2]
  IC50: > 10 µM
[3]
  IC50: > 10 µM
[4]
  IC50: > 10 µM
[5]
  IC50: > 10 µM
[6]
  IC50: > 10 µM
[7]
  viability, T/C: 75.3%
[8]
  viability, T/C: 88.3%
[9]
  viability, T/C: 83.8%
[10]
  viability, T/C: 89.1%
[11]
  viability, T/C: 108%
[12]
  viability, T/C: 92.5%
[13]
  viability, T/C: 106%
[14]
  viability, T/C: 90.2%
[15]
  viability, T/C: 86%
[16]
  viability, T/C: 84.3%
[17]
  viability, T/C: 89.9%
[18]
  viability, T/C: 90.9%
[19]
  viability, T/C: 94.8%
[20]
  viability, T/C: 93.2%
[21]
  viability, T/C: 90.3%
[22]
  viability, T/C: 84%
[23]
  viability, T/C: 84.7%
[24]
  viability, T/C: 100%
[25]
  viability, T/C: 80.2%
[26]
  viability, T/C: 105%
[27]
  viability, T/C: 80.9%
[28]
  viability, T/C: 89.2%
[29]
  viability, T/C: 85.8%
[30]
  viability, T/C: 90%
[31]
  viability, T/C: 72.2%
[32]
  viability, T/C: 91.2%
[33]
  viability, T/C: 97.4%
[34]
  viability, T/C: 98.8%
[35]
  viability, T/C: 82%
[36]
  viability, T/C: 80.7%
[37]
  viability, T/C: 105%
[38]
  viability, T/C: 82.1%
[39]
  viability, T/C: 103%
[40]
  viability, T/C: 84.1%
[41]
  viability, T/C: 86.3%
[42]
  viability, T/C: 88.8%

## Cn1ncc(Cl)c1-c1cc(C(=O)NC(CN)Cc2cccc(F)c2)sc1Cl (centres undefined) + CC(Nc1ncnc2nc[nH]c12)c1cc2cccc(Cl)c2c(=O)n1-c1ccccc1
[1]
  IC50: > 10 µM
[2]
  IC50: > 10 µM
[3]
  IC50: > 10 µM
[4]
  IC50: > 10 µM
[5]
  IC50: > 10 µM
[6]
  IC50: > 10 µM
[7]
  viability, T/C: 101%
[8]
  viability, T/C: 101%
[9]
  viability, T/C: 84.2%
[10]
  viability, T/C: 76.6%
[11]
  viability, T/C: 64.2%
[12]
  viability, T/C: 66.6%
[13]
  viability, T/C: 100%
[14]
  viability, T/C: 79.2%
[15]
  viability, T/C: 80.2%
[16]
  viability, T/C: 76.9%
[17]
  viability, T/C: 70.8%
[18]
  viability, T/C: 66.6%
[19]
  viability, T/C: 104%
[20]
  viability, T/C: 89.1%
[21]
  viability, T/C: 91.5%
[22]
  viability, T/C: 68.1%
[23]
  viability, T/C: 72.4%
[24]
  viability, T/C: 68.3%
[25]
  viability, T/C: 103%
[26]
  viability, T/C: 94.7%
[27]
  viability, T/C: 81.2%
[28]
  viability, T/C: 67.1%
[29]
  viability, T/C: 58.7%
[30]
  viability, T/C: 74.1%
[31]
  viability, T/C: 82.9%
[32]
  viability, T/C: 99.3%
[33]
  viability, T/C: 79.9%
[34]
  viability, T/C: 57.6%
[35]
  viability, T/C: 72.8%
[36]
  viability, T/C: 69.1%
[37]
  viability, T/C: 97.8%
[38]
  viability, T/C: 92.2%
[39]
  viability, T/C: 77.5%
[40]
  viability, T/C: 68.4%
[41]
  viability, T/C: 66.9%
[42]
  viability, T/C: 71.4%

## Cc1nc(NC(=O)N2CCCC2C(N)=O)sc1-c1ccnc(C(C)(C)C(F)(F)F)c1 (centres undefined)
Compound 0.0316 µM
  viability, T/C: 97.8% [middle of 8 runs]
Compound 0.1 µM
  viability, T/C: 96.2% [middle of 8 runs]
Compound 1 µM
  viability, T/C: 97.6% [middle of 8 runs]
Compound 3.16 µM
  viability, T/C: 77% [middle of 7 runs]
Compound 10 µM
  viability, T/C: 39.9% [middle of 8 runs]
Compound alone, run of 04/24/2023
  IC50: 7.37 µM [middle of 8 runs]
